Assay results taken from ChEMBL document CHEMBL3627608, “Crystal structures of human RIP2 kinase catalytic domain complexed with ATP-competitive inhibitors: Foundations for understanding inhibitor selectivity” (Bioorg Med Chem, 2015).

Tests used:
[1] = molecular target: LIM domain kinase 1 (Homo sapiens) (UniProt P53667); test: Inhibition of LIMK1 (unknown origin) at 10 uM after 120 mins P33 radiolabeled kinase activity assay
[2] = molecular target: STE20/SPS1-related proline-alanine-rich protein kinase (Homo sapiens) (UniProt Q9UEW8); test: Inhibition of STK39 (unknown origin) at 10 uM after 120 mins P33 radiolabeled kinase activity assay
[3] = molecular target: MAP kinase-activated protein kinase 2 (Homo sapiens) (UniProt P49137); test: Inhibition of MAPKAPK2 (unknown origin) at 10 uM after 120 mins P33 radiolabeled kinase activity assay
Sequence of MAP kinase-activated protein kinase 2 (Homo sapiens) (P49137 whole entry, looked up): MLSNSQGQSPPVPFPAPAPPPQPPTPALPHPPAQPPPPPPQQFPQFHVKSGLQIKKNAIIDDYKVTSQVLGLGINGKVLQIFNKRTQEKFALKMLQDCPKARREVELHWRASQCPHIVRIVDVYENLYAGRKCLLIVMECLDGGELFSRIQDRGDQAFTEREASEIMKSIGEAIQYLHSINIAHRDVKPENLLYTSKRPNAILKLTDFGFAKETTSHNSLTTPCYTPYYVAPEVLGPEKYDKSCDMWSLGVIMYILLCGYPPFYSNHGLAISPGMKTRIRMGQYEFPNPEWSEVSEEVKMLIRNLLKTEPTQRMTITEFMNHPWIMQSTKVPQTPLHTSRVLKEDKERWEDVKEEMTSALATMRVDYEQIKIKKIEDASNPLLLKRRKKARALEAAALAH

[4] = molecular target: T1, MAP/microtubule affinity-regulating kinase 4 (Homo sapiens) (UniProt Q96L34); test: Inhibition of MARK4 (unknown origin) at 10 uM after 120 mins P33 radiolabeled kinase activity assay
T1 sequence (whole entry): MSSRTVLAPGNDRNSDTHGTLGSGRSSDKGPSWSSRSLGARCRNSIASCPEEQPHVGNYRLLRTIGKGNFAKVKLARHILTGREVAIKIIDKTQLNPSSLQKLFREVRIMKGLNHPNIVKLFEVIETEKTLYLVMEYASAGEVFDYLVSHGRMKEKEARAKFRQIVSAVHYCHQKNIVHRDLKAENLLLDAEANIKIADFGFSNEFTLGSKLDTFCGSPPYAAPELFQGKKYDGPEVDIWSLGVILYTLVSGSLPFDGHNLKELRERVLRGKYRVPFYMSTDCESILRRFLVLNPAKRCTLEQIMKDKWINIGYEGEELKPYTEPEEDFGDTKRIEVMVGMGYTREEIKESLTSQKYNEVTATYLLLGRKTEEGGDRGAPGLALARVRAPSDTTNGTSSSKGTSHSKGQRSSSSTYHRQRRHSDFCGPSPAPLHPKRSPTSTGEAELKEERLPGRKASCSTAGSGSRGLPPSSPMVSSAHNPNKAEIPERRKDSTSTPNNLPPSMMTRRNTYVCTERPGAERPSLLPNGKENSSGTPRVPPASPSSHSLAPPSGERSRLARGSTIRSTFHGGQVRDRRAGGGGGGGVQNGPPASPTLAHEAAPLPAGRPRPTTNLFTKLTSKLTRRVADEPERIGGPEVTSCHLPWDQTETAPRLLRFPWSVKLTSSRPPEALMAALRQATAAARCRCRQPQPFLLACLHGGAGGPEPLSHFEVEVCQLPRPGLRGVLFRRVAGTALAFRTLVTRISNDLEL

[5] = molecular target: Cyclin-dependent kinase 18 (Homo sapiens) (UniProt Q07002); test: Inhibition of PCTK3 (unknown origin) at 10 uM after 120 mins P33 radiolabeled kinase activity assay
Sequence of Cyclin-dependent kinase 18 (Homo sapiens) (Q07002 whole entry): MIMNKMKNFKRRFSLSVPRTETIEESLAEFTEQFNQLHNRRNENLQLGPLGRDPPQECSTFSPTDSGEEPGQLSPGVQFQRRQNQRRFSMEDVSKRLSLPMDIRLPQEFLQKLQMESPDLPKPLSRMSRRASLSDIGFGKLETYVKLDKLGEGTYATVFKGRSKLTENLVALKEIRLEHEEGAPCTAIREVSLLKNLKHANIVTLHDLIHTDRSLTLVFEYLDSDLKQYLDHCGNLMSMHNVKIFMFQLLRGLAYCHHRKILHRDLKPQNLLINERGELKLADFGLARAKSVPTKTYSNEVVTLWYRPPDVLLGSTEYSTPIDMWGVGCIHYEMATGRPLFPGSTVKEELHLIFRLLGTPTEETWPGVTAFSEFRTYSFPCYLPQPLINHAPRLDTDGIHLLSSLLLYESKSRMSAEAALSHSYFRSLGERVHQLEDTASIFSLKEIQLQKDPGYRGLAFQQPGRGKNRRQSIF

[6] = molecular target: Mitogen-activated protein kinase kinase kinase kinase 5 (Homo sapiens) (UniProt Q9Y4K4); test: Inhibition of KHS (unknown origin) at 10 uM after 120 mins P33 radiolabeled kinase activity assay
[7] = molecular target: Glycogen synthase kinase-3 beta (Homo sapiens) (UniProt P49841); test: Inhibition of GSK3beta (unknown origin) at 10 uM after 120 mins P33 radiolabeled kinase activity assay
Sequence of Glycogen synthase kinase-3 beta (Homo sapiens) (P49841 whole entry, looked up): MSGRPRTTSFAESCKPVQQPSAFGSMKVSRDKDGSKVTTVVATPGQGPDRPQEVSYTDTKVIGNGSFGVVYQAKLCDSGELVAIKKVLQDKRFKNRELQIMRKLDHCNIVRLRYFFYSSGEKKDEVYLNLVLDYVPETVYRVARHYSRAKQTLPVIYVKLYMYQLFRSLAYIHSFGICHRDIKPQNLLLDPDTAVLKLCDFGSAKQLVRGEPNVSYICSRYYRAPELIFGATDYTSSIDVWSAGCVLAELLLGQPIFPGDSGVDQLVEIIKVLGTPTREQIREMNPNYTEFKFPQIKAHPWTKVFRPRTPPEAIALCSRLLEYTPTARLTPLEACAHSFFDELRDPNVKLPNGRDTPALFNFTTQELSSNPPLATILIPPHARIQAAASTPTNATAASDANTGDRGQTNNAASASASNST

[8] = molecular target: NT-3 growth factor receptor (Homo sapiens) (UniProt Q16288); test: Inhibition of TRKC (unknown origin) at 10 uM after 120 mins P33 radiolabeled kinase activity assay
[9] = molecular target: T2, Aurora kinase C (Homo sapiens) (UniProt Q9UQB9); test: Inhibition of Aurora C (unknown origin) at 10 uM after 120 mins P33 radiolabeled kinase activity assay
T2 sequence (whole entry): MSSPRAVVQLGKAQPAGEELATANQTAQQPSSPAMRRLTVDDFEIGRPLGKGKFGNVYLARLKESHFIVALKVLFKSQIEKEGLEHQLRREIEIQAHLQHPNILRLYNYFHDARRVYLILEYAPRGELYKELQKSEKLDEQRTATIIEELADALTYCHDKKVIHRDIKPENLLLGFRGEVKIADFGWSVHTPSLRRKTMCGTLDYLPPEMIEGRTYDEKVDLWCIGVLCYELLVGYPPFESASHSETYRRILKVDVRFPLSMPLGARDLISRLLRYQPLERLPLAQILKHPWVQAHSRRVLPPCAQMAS

[10] = molecular target: Dual specificity tyrosine-phosphorylation-regulated kinase 1B (Homo sapiens) (UniProt Q9Y463); test: Inhibition of DYRK1B (unknown origin) at 10 uM after 120 mins P33 radiolabeled kinase activity assay
[11] = molecular target: CDK6/cyclin D3 (Homo sapiens) (UniProt P30281+Q00534); test: Inhibition of CDK6/cyclin D3 (unknown origin) at 10 uM after 120 mins P33 radiolabeled kinase activity assay; assay type: protein-complex assay
[12] = molecular target: Insulin receptor-related protein (Homo sapiens) (UniProt P14616); test: Inhibition of IRR (unknown origin) at 10 uM after 120 mins P33 radiolabeled kinase activity assay
[13] = molecular target: T3, Serine/threonine-protein kinase Chk1 (Homo sapiens) (UniProt O14757); test: Inhibition of CHK1 (unknown origin) at 10 uM after 120 mins P33 radiolabeled kinase activity assay
T3 sequence (whole entry): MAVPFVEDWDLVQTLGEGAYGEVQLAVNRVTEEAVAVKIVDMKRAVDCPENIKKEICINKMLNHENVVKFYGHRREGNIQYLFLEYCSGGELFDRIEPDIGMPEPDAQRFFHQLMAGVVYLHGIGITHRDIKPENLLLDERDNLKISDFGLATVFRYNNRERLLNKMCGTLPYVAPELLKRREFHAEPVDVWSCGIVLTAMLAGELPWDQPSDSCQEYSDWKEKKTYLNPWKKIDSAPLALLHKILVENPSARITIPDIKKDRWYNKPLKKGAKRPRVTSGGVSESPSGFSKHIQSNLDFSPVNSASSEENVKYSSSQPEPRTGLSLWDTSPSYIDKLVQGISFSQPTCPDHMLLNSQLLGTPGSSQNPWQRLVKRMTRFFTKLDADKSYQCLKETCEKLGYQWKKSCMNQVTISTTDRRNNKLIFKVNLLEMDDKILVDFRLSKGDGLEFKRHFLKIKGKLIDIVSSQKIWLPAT

[14] = molecular target: Fibroblast growth factor receptor 4 (Homo sapiens) (UniProt P22455); test: Inhibition of FGFR4 (unknown origin) at 10 uM after 120 mins P33 radiolabeled kinase activity assay
Sequence of Fibroblast growth factor receptor 4 (Homo sapiens) (P22455 22-802 limits assumed): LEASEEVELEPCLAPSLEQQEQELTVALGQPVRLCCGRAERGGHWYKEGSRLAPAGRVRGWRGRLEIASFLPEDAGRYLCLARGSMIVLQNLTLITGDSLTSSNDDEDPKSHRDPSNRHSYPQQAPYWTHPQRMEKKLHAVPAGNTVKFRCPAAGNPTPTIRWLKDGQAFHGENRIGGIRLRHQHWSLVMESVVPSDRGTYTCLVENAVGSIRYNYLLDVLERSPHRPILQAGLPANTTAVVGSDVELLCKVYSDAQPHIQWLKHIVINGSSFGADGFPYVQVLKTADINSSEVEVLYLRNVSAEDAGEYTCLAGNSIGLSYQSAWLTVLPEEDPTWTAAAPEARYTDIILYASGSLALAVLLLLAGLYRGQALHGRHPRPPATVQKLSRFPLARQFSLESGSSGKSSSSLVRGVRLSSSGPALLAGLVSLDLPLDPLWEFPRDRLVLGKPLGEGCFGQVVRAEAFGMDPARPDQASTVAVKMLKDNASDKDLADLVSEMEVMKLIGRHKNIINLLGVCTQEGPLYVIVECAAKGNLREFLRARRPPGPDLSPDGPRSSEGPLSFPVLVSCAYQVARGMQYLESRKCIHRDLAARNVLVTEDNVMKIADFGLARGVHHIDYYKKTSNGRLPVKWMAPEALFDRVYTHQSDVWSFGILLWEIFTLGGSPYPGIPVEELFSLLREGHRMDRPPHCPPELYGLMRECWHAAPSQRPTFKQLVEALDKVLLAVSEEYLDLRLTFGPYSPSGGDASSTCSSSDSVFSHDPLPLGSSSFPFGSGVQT

[15] = molecular target: Proto-oncogene tyrosine-protein kinase Src (Homo sapiens) (UniProt P12931); test: Inhibition of c-Src (unknown origin) at 10 uM after 120 mins P33 radiolabeled kinase activity assay
Sequence of Proto-oncogene tyrosine-protein kinase Src (Homo sapiens) (P12931 2-536 limits assumed): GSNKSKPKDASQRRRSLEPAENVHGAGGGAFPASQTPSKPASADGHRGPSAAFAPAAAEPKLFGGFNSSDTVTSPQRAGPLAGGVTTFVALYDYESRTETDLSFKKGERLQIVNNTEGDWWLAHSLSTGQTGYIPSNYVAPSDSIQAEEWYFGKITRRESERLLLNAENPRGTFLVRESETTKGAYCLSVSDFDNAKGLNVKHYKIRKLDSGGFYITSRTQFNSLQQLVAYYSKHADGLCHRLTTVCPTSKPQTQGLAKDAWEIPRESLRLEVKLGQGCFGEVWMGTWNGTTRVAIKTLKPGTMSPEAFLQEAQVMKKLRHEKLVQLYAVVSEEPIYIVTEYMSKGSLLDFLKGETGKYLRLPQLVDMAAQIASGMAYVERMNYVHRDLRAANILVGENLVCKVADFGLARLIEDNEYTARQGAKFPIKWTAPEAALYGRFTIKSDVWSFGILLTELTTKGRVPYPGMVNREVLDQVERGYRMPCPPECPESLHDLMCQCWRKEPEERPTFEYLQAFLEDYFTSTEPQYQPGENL

[16] = molecular target: Serine/threonine-protein kinase N1 (Homo sapiens) (UniProt Q16512); test: Inhibition of PKN1 (unknown origin) at 10 uM after 120 mins P33 radiolabeled kinase activity assay
[17] = molecular target: Death-associated protein kinase 2 (Homo sapiens) (UniProt Q9UIK4); test: Inhibition of DAPK2 (unknown origin) at 10 uM after 120 mins P33 radiolabeled kinase activity assay
Sequence of Death-associated protein kinase 2 (Homo sapiens) (Q9UIK4 whole entry, looked up): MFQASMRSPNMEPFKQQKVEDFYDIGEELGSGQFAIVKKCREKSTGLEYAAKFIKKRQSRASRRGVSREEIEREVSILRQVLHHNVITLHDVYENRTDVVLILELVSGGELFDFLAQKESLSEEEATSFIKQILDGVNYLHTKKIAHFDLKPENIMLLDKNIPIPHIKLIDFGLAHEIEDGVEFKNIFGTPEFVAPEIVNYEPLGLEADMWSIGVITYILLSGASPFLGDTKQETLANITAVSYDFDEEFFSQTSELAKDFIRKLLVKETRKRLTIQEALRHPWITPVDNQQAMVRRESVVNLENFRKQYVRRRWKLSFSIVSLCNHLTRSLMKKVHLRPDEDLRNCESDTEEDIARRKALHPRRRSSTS

[18] = molecular target: Serine/threonine-protein kinase 38 (Homo sapiens) (UniProt Q15208); test: Inhibition of STK38 (unknown origin) at 10 uM after 120 mins P33 radiolabeled kinase activity assay
Sequence of Serine/threonine-protein kinase 38 (Homo sapiens) (Q15208 2-465 limits assumed): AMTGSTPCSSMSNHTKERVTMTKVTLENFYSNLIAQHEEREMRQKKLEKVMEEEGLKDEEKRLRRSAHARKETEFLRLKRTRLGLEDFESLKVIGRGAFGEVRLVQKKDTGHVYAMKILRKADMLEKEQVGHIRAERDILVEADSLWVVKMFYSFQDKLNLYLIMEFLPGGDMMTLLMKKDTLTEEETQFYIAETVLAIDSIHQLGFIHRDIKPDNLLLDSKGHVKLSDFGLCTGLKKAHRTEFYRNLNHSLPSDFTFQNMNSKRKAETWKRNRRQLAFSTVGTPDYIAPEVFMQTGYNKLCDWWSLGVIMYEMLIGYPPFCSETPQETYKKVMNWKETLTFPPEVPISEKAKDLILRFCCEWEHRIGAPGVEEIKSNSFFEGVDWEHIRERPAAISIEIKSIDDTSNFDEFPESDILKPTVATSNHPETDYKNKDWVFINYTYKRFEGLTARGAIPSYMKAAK

[19] = molecular target: Misshapen-like kinase 1 (Homo sapiens) (UniProt Q8N4C8); test: Inhibition of MINK (unknown origin) at 10 uM after 120 mins P33 radiolabeled kinase activity assay
Sequence of Misshapen-like kinase 1 (Homo sapiens) (Q8N4C8 whole entry, looked up): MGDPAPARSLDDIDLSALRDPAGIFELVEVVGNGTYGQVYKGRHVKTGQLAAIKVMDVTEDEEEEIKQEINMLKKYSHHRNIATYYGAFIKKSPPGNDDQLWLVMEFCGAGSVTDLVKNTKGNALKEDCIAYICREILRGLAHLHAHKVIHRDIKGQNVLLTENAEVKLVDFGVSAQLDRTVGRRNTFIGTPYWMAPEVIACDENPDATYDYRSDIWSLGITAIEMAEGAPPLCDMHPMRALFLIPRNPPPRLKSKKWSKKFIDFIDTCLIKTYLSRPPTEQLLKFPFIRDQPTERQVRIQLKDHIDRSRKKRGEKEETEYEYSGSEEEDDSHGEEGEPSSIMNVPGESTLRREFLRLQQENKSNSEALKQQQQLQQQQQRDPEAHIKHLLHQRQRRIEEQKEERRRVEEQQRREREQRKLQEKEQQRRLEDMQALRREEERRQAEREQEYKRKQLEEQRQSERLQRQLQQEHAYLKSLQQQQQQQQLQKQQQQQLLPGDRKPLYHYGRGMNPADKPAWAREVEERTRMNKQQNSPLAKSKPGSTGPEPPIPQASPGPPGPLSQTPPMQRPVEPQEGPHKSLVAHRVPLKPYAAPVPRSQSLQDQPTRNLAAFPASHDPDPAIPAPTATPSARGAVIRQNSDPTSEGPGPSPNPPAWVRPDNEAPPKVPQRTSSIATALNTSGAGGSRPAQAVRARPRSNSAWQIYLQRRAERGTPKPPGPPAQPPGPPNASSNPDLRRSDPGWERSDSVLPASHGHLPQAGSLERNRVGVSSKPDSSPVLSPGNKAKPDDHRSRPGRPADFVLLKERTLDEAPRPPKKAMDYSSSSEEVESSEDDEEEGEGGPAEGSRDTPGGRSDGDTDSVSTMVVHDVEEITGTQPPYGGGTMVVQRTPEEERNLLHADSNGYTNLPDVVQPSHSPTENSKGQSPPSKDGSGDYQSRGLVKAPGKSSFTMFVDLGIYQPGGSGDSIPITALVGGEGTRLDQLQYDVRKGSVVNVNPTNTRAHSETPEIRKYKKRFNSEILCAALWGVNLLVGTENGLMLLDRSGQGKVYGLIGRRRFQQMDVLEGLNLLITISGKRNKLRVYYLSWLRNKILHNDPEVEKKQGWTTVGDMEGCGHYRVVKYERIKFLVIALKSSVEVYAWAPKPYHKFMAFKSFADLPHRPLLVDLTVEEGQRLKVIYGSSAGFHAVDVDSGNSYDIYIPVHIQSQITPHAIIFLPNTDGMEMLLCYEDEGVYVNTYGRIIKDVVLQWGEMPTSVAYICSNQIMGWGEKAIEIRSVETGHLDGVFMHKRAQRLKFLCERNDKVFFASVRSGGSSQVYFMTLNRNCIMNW

inhibition [1] [%] | inhibition [2] [%] | inhibition [3] [%] | inhibition [4] [%] | inhibition [5] [%] | inhibition [6] [%] | inhibition [7] [%] | inhibition [8] [%] | inhibition [9] [%] | inhibition [10] [%] | inhibition [11] [%] | inhibition [12] [%] | inhibition [13] [%] | inhibition [14] [%] | inhibition [15] [%] | inhibition [16] [%] | inhibition [18] [%] | inhibition [19] [%] | SMILES | inhibition [17] [%]
99.2 | 28.6 | 10.7 | 39.1 | 27.3 | 93.5 | 98.9 | 84.8 | 11 | 27.5 | 83.8 | 10.1 | 10.9 | 47.3 | 99.1 | 5.55 | 27.4 | 62.5 | CS(=O)(=O)c1cccc(Nc2nccc(-c3sc(N4CCOCC4)nc3-c3cccc(NS(=O)(=O)c4c(F)cccc4F)c3)n2)c1 | 1.67
8.6 | 6.77 | 11.5 | 12.5 | -6.38 | 33.6 | 16.9 | 11.8 | 3.77 | 11.4 | 5.8 | 1.49 | 15.3 | 3.75 | 81.1 | 10.6 | 3.88 | 60.7 | COCCNC(=O)c1ccc2c(c1)nc(-c1cnc(-c3ccc(Cl)cc3)[nH]1)n2CCOC | 6.92
75.6 | 52.4 | 11 | 13.8 | 92.2 | 90 | 34.9 | 99.7 | 15.8 | 14.5 | 43.8 | 33 | -0.09 | 73.3 | 85.8 | 25.1 | 3.87 | 100 | CC(C)(C)c1cc(NC(=O)Nc2ccc(Oc3ccncc3)cc2)no1 | 3.58
